Consider 5 compounds from patent US12637481B2, “Boronic acid derivatives and therapeutic uses thereof” (QPEX BIOPHARMA, INC., priority 2020, dated 2026).

Read-outs that look alike come from different tables or passages of the source.

Data set [1] in a line: Microsomal activation of prodrug, monkey liver microsomes. The class given is in vitro ADME. To be noted: 1 μM in monkey liver microsomes, room temperature, assayed for active drug by LC/MS/MS; read-out: Half-life monkey micorsomes. The procedure: (§1) Serum activation: Compounds 1, 2, or II were solubilized in water and added to rat, dog, monkey, and human serum at a concentration of 50 μg/mL. The samples were incubated at room temperature for 1 hour then assayed for “active” drug content using an LC/MS/MS assay. Microsomal activation: Compounds 1, 2, or II were solubilized in water and added to rat, dog, monkey, and human liver microsomes at a concentration of 1 μM. The samples were incubated at room temperature for 1 hour then assayed for “active” drug content using an LC/MS/MS assay.

The nature of data set [2]: Serum activation of prodrug, monkey serum. The data set is classed as in vitro ADME. To be noted: 50 μg/mL in monkey serum, room temperature, 1 hour, assayed for active drug by LC/MS/MS. How it is done:
as §1

Data set [3] is described as follows: Serum activation of prodrug, rat serum. To be noted: 50 μg/mL in rat serum, room temperature, 1 hour, assayed for active drug by LC/MS/MS. The class given is in vitro ADME. The procedure:
as §1

A short description of the next data set: Permeability/transport. The data set is classed as in vitro ADME.
The nature of data set [4]: Serum activation of prodrug, human serum. The data set is classed as in vitro ADME. To be noted: 50 μg/mL in human serum, room temperature, 1 hour, assayed for active drug by LC/MS/MS. The procedure: as §1
A short description of data set [5]: Microsomal activation of prodrug, human liver microsomes. The conditions noted are these: for half-life at 1 μM: 1 μM in human liver microsomes, room temperature, assayed for active drug by LC/MS/MS. The data set is classed as in vitro ADME. The procedure:
as §1
On the technique in general: Liver microsomes are a subcellular fraction often used to study metabolism.

A short description of another data set: Crystallinity. The class given is physicochemical.
Data set [6] can be described thus: Microsomal activation of prodrug, rat liver microsomes. The class given is in vitro ADME. To be noted: 1 μM in rat liver microsomes, room temperature, assayed for active drug by LC/MS/MS. The procedure:
as §1

Data set [7] in a line: Serum activation of prodrug, dog serum. The data set is classed as in vitro ADME. To be noted: 50 μg/mL in dog serum, room temperature, 1 hour, assayed for active drug by LC/MS/MS. How it is done:
as §1

The nature of data set [8]: Microsomal activation of prodrug, dog liver microsomes. The data set is classed as in vitro ADME. To be noted: 1 μM in dog liver microsomes, room temperature, assayed for active drug by LC/MS/MS. The procedure: as §1
Data set [9] can be described thus: Dynamic vapor sorption (DVS), hygroscopicity. The class given is physicochemical. The conditions noted are these: 25° C., 5 to 95% RH. The procedure:
DVS analysis was carried out using a TA Instruments Q5000 Dynamic Vapor Sorption analyzer. The instrument was calibrated with standard weights and a sodium bromide standard for humidity. Approximately 20 mg of sample was loaded into a metal-coated quartz pan for analysis. The sample was analyzed at 25° C. with a maximum equilibration time of one hour in 10% relative humidity (RH) steps from 5 to 95% RH (adsorption cycle) and from 95 to 5% RH (desorption cycle). The movement from one step to the next occurred either after satisfying the equilibrium criterion of 0.01% weight change or, if the equilibrium criterion was not met, after one hour. The percent weight change values were calculated using Microsoft Excel®. The temperature for the DVS analysis can impact the outcome of the results.

What is called half-life is the time in which the quantity being followed falls by half. Take `CC(=O)OCOC(=O)c1c(F)ccc2c1OB(O)[C@@H]1C[C@H]21` [Compound 2]: the half-life at 1 μM is 3 ± 2 min in data set [1], 8 ± 1 min in [5] and 3 ± 2 min in data set [6]. Moreover, the half-life at 50 μg/mL in [2], in data set [3], in [4] and in [7] was greater than 60 min in each case. The Permeability/transport result in “Permeability/transport” is given as “High”. The Crystallinity entry was “not crystalline” in the data set “Crystallinity” and “No” in “Crystallinity” (listed as drawing 11).

`CCCC(=O)OCOC(=O)c1c(F)ccc2c1OB(O)[C@@H]1C[C@H]21` [Compound 1]: the half-life at 1 μM in data set [1] was determined as 2 ± 1 min; in data set [8] it was 11 ± 1 min; in [5] it was 28 ± 2 min; in data set [6], 3 ± 1 min. Also, the half-life at 50 μg/mL in data set [2], in [3], in data set [4] and in [7] was greater than 60 min throughout. Further, the Permeability/transport result in the data set “Permeability/transport” is listed as “High”. Further, in data set [5] (compared with Compound 2 or Compound II), the “human microsomal activation, compared in words” value is “significantly slower”. Further, in “Crystallinity”, the Crystallinity result was “Yes”.

Consider `CC(C)C(=O)OCOC(=O)c1c(F)ccc2c1O[B-](O)(O)[C@@H]1C[C@H]21.[Na+]` [crystalline Form A of Compound II′], for which, in [9], the “Hygroscopicity by dynamic vapor sorption (DVS)” value is given as “slightly hygroscopic”.

For the compound `CC(C)C(=O)OCOC(=O)c1c(F)ccc2c1OB(O)[C@@H]1C[C@H]21` [Compound II, (isobutyryloxy)methyl (1aR,7bS)-5-fluoro-2-hydroxy-1,1a,2,7b-tetrahydrobenzo[e]cyclopropa[c][1,2]oxaborinine-4-carboxylate], the half-life at 1 μM in data set [1] came out at 2 ± 1 min; in data set [8], 23 ± 2 min; in [5], 9 ± 5 min; in data set [6], 5 ± 3 min. For the same compound, the half-life at 50 μg/mL in data set [2], in [3], in [4] and in data set [7] was greater than 60 min each time. In the data set “Permeability/transport”, the Permeability/transport entry is recorded as “High”. Besides, the “Human microsome activation t1/2” value in data set [5] (human liver microsomes, as repeated in Table 2) is on record as 9 + 5 min. The Crystallinity result in the data set “Crystallinity” was “Yes”.

On to `CC(C)C(=O)OCOC(=O)c1c(F)ccc2c1O[B-](O)(O)[C@@H]1C[C@H]21.[Na+]` [crystalline Form B of Compound II′], for which the “Hygroscopicity by dynamic vapor sorption (DVS)” value in data set [9] is given as “moderately hygroscopic”.
